Data taken from US20220133747A1, “ESTROGEN RECEPTOR INHIBITORS AND USES THEROF” (The Regents of the University of California, priority 2018, published 2022).

What was measured:
ERα = molecular target: T1, ERα (Homo sapiens, UniProt P03372); assay: Downregulation of ER protein, PAGE and Western immunoblot in MCF-7 cells; assay type: cell-based; details: 100 nM, 4 hours, phenol-red free medium without FBS
T1 construct: endogenous in cells; host or cells: MCF-7 human breast cancer cells (ATCC)
T1 sequence (P03372 1-595): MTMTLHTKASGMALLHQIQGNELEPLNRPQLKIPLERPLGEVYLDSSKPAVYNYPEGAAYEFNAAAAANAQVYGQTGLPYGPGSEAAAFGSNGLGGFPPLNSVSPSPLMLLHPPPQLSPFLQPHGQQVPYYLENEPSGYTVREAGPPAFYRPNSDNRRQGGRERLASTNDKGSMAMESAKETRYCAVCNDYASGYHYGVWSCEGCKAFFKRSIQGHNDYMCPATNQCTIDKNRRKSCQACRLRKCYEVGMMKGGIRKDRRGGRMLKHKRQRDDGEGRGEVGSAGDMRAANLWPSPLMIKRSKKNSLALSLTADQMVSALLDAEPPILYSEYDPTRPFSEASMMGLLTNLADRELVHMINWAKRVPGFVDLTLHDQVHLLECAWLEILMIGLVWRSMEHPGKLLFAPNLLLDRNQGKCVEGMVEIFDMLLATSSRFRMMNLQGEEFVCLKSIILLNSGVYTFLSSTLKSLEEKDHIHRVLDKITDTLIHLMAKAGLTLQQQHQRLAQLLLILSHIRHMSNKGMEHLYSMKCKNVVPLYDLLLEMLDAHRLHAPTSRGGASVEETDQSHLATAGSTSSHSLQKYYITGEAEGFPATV
Experimental: (§1) FIGS. 20A-20C show biologic activity of selected SERD candidates. […] ER-positive MCF-7 cells were treated in phenol-red free RPMI 1640 without FBS and containing vehicle control (CON) or 100 nM concentrations of either fulvestrant (FX) or antiestrogens 105, 109, 121, 140, 151, 160 or SERD128 in vitro. After 4 hours, cells were harvested and processed for PAGE and Western immunoblots using ERα antibody (1D5, Thermofisher Scientific). RPL13A was used as a loading control. […] Cells were dosed with either E2 alone or with SERDs combined with E2 in phenol redfree medium with 0.1% dextran-coated charcoal-treated FBS in luminometer plates. Data are presented as relative light units (RLU) relative to that of E2 alone in three replicate assays (4 wells per replicate) f SEM. Treatment with E2 alone induced a 12-fold induction of ER-dependent luciferase activity quantified as RLU relative to vehicle control-treated samples.
MCF7 cells were plated in regular medium. After 24 hrs, cells were incubated in the presence of antiestrogens or fulvestrant for 4 hrs in phenol-red free medium without FBS. Cell lysates were prepared using RIPA buffer, and protein concentration was determined using the BCA Protein Assay Kit (PIERCE/ThermoFisher Scientific). Forty micrograms of total cell protein was resolved by 4-15% SDS-PAGE, transferred to a PVDF membrane and probed with antibody directed against ERα (1D5, 1:100, ThermoFisher cat #MA5-13191). RPL13A (dilution 1:1000, Invitrogen/ThermoFisher cat #PA5-58528) was used as loading control.

[1] = test system: ER-dependent transcription; assay: ERE-luciferase T47D reporter, ER-dependent transcriptional activity; assay type: cell-based, human; details: E2 alone, 2 nM
Experimental: as §1
A stable ER-positive T47D ERE luciferase reporter cell line, in which the ERE and the reporter luciferase gene are consistently expressed in the cell line were used in this study (Signosis). […] Lysate was mixed 1:1 with luciferase substrate (Promega), and luminescence was measured using a MLX microtiter plate luminometer (Dynex) and quantified as relative light units (RLU) according to established procedures. Total protein was quantified using BioRad Protein Assay (BioRad).

ER+ early breast cancer = details: cited from earlier work

For `C[C@]12C[C@H](Oc3ccc(NC(=O)CCCCN4CCCCC4)c(F)c3)[C@@H]3c4ccc(O)cc4CC[C@H]3[C@@H]1CC[C@@H]2O` [SERD140, N-(4-(((8S,9S,11S,13S,14S,17S)-3,17-Dihydroxy-13-methyl-7,8,9,11,12,13,14,15,16,17-deca-hydro-6H-cyclopenta[a]phenanthren-11-yl)oxy)-2-fluorophenyl)-5-(piperidin-1-yl)pentan-amide], the “downregulation of ER protein (ERα protein levels)” value (ERα) was “most effective in reducing ER protein levels”.

With `C[C@]12CC[C@@H]3c4ccc(O)cc4CC[C@H]3[C@@H]1CC[C@@H]2O` [E2, estradiol-17β, reference compound] the “induction of ER-dependent luciferase activity (RLU relative to vehicle control)” value [1] was 12 fold.

For `CC/C(=C(\c1ccccc1)c1ccc(OCCN(C)C)cc1)c1ccccc1` [Tamoxifen], the “reduction in disease recurrence” value (ER+ early breast cancer) is listed as 39% and the reduction in mortality (ER+ early breast cancer) is listed as 31%.
